Laboratory results: paper PMC9609273 (Pharmaceuticals, 2022)
Read-outs that look alike come from different tables or passages of the source.

What was measured:
[1] = test system: inhA promoter mutant INH-resistant Mtb clinical isolate; format: cell-based, Mycobacterium tuberculosis
[2] = test system: katG S315T mutant INH-resistant Mtb clinical isolate; format: cell-based, Mycobacterium tuberculosis
[3] = target: enoyl acyl carrier protein reductase (InhA) (Mycobacterium tuberculosis, UniProt P9WGR1); format: biochemical
enoyl acyl carrier protein reductase (InhA), sequence (P9WGR1 whole entry, looked up): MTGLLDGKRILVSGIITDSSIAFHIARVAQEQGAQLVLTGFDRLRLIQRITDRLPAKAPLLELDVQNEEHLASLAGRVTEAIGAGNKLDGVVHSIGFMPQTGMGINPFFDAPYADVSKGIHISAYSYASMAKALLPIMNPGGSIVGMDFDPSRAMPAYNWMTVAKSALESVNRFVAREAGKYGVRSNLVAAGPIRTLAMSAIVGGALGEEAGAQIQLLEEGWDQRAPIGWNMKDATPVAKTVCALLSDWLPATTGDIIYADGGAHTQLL

With “3-((2-Isonicotinoylhydrazono)methyl)phenyl quinoline-8-sulfonate [SIH13]” the “MIC inhA +” value [1] was 3.12 µM, the “MIC katG +” value [2] was 12.5 µM and the “% Inhibition of InhA” value ([3]; 50 µM) was 22%.

In the case of “3-((2-Isonicotinoylhydrazono)methyl)phenyl 4-methoxybenzenesulfonate [SIH4]”, the “MIC inhA +” value [1] is reported as 1.56 µM, the “MIC katG +” value [2] is reported as 6.25 µM and the “% Inhibition of InhA” value ([3]; 50 µM compound) is reported as 5%.

With `NNC(=O)c1ccncc1` [Isoniazid, isonicotinic acid hydrazide, reference compound] the “MIC inhA +” value [1] was 1.56 µM and the “MIC katG +” value [2] was 6.25 µM.

For “3-((2-Isonicotinoylhydrazono)methyl)phenyl [1,1′-biphenyl]-4-sulfonate [SIH12]”, the “MIC inhA +” value [1] was 3.12 µM, the “MIC katG +” value [2] was 12.5 µM and the “% Inhibition of InhA” value ([3]; 50 µM compound) was 31%.

In the case of “3-((2-Isonicotinoylhydrazono)methyl)phenyl 4-nitrobenzenesulfonate [SIH9]”, the “MIC inhA +” value [1] is reported as 3.12 µM, the “MIC katG +” value [2] is reported as 25 µM and the “% Inhibition of InhA” value ([3]; 50 µM compound) is reported as 8%.

For “3-((2-Isonicotinoylhydrazono)methyl)phenyl 4-bromobenzenesulfonate [SIH5]”, the “MIC katG +” value [2] was 25 µM and the “% Inhibition of InhA” value ([3]; 50 µM compound) was 33%.

With “3-((2-Isonicotinoylhydrazono)methyl)phenyl 3-nitrobenzenesulfonate [SIH10]” the “MIC inhA +” value [1] was 3.12 µM, the “MIC katG +” value [2] was 12.5 µM and the “% Inhibition of InhA” value ([3]; 50 µM compound) was 17%.

With “3-((2-Isonicotinoylhydrazono)methyl)phenyl 4-acetamidobenzenesulfonate [SIH11]” the “MIC inhA +” value [1] was 3.12 µM, the “MIC katG +” value [2] was 12.5 µM and the “% Inhibition of InhA” value ([3]; 50 µM compound) was 10%.

With “3-((2-Isonicotinoylhydrazono)methyl)phenyl 2,4,6-trimethylbenzenesulfonate [SIH3]” the “MIC inhA +” value [1] was 6.25 µM and the “MIC katG +” value [2] was 50 µM.

In the case of “3-((2-Isonicotinoylhydrazono)methyl)phenyl 4-chlorobenzenesulfonate [SIH6]”, the “MIC katG +” value [2] is reported as over 100 µM and the “% Inhibition of InhA” value ([3]; 50 µM compound) is reported as 23%.

In the case of “3-((2-Isonicotinoylhydrazono)methyl)phenyl 2,5-dichlorobenzenesulfonate [SIH8]”, the “MIC inhA +” value [1] is reported as 3.12 µM and the “MIC katG +” value [2] is reported as 12.5 µM.

“3-((2-Isonicotinoylhydrazono)methyl)phenyl 4-methylbenzenesulfonate [SIH1]” was tested, and the “MIC inhA +” value [1] was 1.56 µM, the “MIC katG +” value [2] was 50 µM and the “% Inhibition of InhA” value ([3]; 50 µM compound) was 12%.

For “3-((2-Isonicotinoylhydrazono)methyl)phenyl 4-iodobenzenesulfonate [SIH7]”, the “MIC inhA +” value [1] was 6.25 µM, the “MIC katG +” value [2] was over 100 µM and the “% Inhibition of InhA” value ([3]; 50 µM compound) was 41%.

In the case of “3-((2-Isonicotinoylhydrazono)methyl)phenyl 4-(tert-butyl)benzenesulfonate [SIH2]”, the “MIC inhA +” value [1] is reported as 1.56 µM, the “MIC katG +” value [2] is reported as 25 µM and the “% Inhibition of InhA” value ([3]; 50 µM compound) is reported as 25%.
